# PubChem BioAssay (NCI)
#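 In this assay, cells in 96-well plates receive the compound at five concentrations for 48 hours. Endpoints are linearly interpolated between the surrounding concentrations. GI50 is the concentration that inhibits growth by half. TGI denotes the concentration required for complete inhibition of growth.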
# Columns and labels:
# Experiment in all cases: NCI tumour cell line growth inhibition, 48 h
# A498 renal = tested on: A498 renal
# A549 NSCLC = tested on: A549 NSCLC
# ACHN renal = tested on: ACHN renal
# COLO 205 colon = tested on: COLO 205 colon
# EKVX NSCLC = tested on: EKVX NSCLC
# HCC-2998 colon = tested on: HCC-2998 colon
# HOP-92 NSCLC = tested on: HOP-92 NSCLC
# HS 578T breast = tested on: HS 578T breast
# HT29 colon = tested on: HT29 colon
# KM12 colon = tested on: KM12 colon
# MDA-MB-231 breast = tested on: MDA-MB-231 breast
# NCI-H226 lung = tested on: NCI-H226 lung
# NCI-H23 lung = tested on: NCI-H23 lung
# NCI-H522 lung = tested on: NCI-H522 lung
# NCI/ADR-RES ovarian = tested on: NCI/ADR-RES ovarian
# OVCAR-3 ovarian = tested on: OVCAR-3 ovarian
# OVCAR-5 ovarian = tested on: OVCAR-5 ovarian
# OVCAR-8 ovarian = tested on: OVCAR-8 ovarian
# RPMI-8226 leukemia = tested on: RPMI-8226 leukemia
# SF-268 CNS = tested on: SF-268 CNS
# SF-539 CNS = tested on: SF-539 CNS
# SK-MEL-2 melanoma = tested on: SK-MEL-2 melanoma
# SK-OV-3 ovarian = tested on: SK-OV-3 ovarian
# T-47D breast = tested on: T-47D breast
# TK-10 renal = tested on: TK-10 renal
# U251 CNS = tested on: U251 CNS
# UACC-257 melanoma = tested on: UACC-257 melanoma
# 786-0 renal = tested on: 786-0 renal
# BT-549 breast = tested on: BT-549 breast
# CAKI-1 renal = tested on: CAKI-1 renal
# CCRF-CEM leukemia = tested on: CCRF-CEM leukemia
# DU-145 prostate = tested on: DU-145 prostate
# HCT-116 colon = tested on: HCT-116 colon
# HCT-15 colon = tested on: HCT-15 colon
# HL-60(TB) leukemia = tested on: HL-60(TB) leukemia
# HOP-62 NSCLC = tested on: HOP-62 NSCLC
# IGROV1 ovarian = tested on: IGROV1 ovarian
# K-562 leukemia = tested on: K-562 leukemia
# LOX IMVI melanoma = tested on: LOX IMVI melanoma
# M14 melanoma = tested on: M14 melanoma
# MALME-3M melanoma = tested on: MALME-3M melanoma
# MDA-MB-435 = tested on: MDA-MB-435
# MOLT-4 leukemia = tested on: MOLT-4 leukemia
# OVCAR-4 ovarian = tested on: OVCAR-4 ovarian
# PC-3 prostate = tested on: PC-3 prostate
# RXF 393 renal = tested on: RXF 393 renal
# SF-295 CNS = tested on: SF-295 CNS
# SK-MEL-28 melanoma = tested on: SK-MEL-28 melanoma
# SK-MEL-5 melanoma = tested on: SK-MEL-5 melanoma
# SN12C renal = tested on: SN12C renal
# SNB-19 CNS = tested on: SNB-19 CNS
# SNB-75 CNS = tested on: SNB-75 CNS
# SR leukemia = tested on: SR leukemia
# SW-620 colon = tested on: SW-620 colon
# UACC-62 melanoma = tested on: UACC-62 melanoma
# UO-31 renal = tested on: UO-31 renal
smiles,measurement,setting,value
COCCNCc1ccc(-c2cc3nccc(Oc4ccc(NC(=S)NC(=O)Cc5ccc(F)cc5)cc4F)c3s2)nc1,GI50,A498 renal,2.11 µM
same,TGI,A498 renal,8.71 µM
same,GI50,A549 NSCLC,1.72 µM
same,TGI,A549 NSCLC,3.29 µM
same,GI50,ACHN renal,1.97 µM
same,TGI,ACHN renal,4.54 µM
same,GI50,COLO 205 colon,2.02 µM
same,TGI,COLO 205 colon,4.3 µM
same,GI50,EKVX NSCLC,2.5 µM
same,TGI,EKVX NSCLC,6.96 µM
same,GI50,HCC-2998 colon,4.68 µM
same,TGI,HCC-2998 colon,26.9 µM
same,GI50,HOP-92 NSCLC,1.22 µM
same,TGI,HOP-92 NSCLC,4.48 µM
same,GI50,HS 578T breast,1.81 µM
same,TGI,HS 578T breast,4.91 µM
same,GI50,HT29 colon,1.45 µM
same,TGI,HT29 colon,3.19 µM
same,GI50,KM12 colon,0.328 µM
same,TGI,KM12 colon,2 µM
same,GI50,MDA-MB-231 breast,1.97 µM
same,TGI,MDA-MB-231 breast,4.1 µM
same,GI50,NCI-H226 lung,1.98 µM
same,TGI,NCI-H226 lung,6.48 µM
same,GI50,NCI-H23 lung,1.51 µM
same,TGI,NCI-H23 lung,4.63 µM
same,GI50,NCI-H522 lung,2.51 µM
same,TGI,NCI-H522 lung,6.5 µM
same,GI50,NCI/ADR-RES ovarian,2.02 µM
same,TGI,NCI/ADR-RES ovarian,5.2 µM
same,GI50,OVCAR-3 ovarian,1.93 µM
same,TGI,OVCAR-3 ovarian,3.52 µM
same,GI50,OVCAR-5 ovarian,3.05 µM
same,TGI,OVCAR-5 ovarian,13.6 µM
same,GI50,OVCAR-8 ovarian,2.17 µM
same,TGI,OVCAR-8 ovarian,5.12 µM
same,GI50,RPMI-8226 leukemia,2.04 µM
same,TGI,RPMI-8226 leukemia,5.13 µM
same,GI50,SF-268 CNS,1.88 µM
same,TGI,SF-268 CNS,4.73 µM
same,GI50,SF-539 CNS,0.909 µM
same,TGI,SF-539 CNS,2.41 µM
same,GI50,SK-MEL-2 melanoma,6.01 µM
same,TGI,SK-MEL-2 melanoma,19.1 µM
same,GI50,SK-OV-3 ovarian,18.5 µM
same,TGI,SK-OV-3 ovarian,34.4 µM
same,GI50,T-47D breast,2.12 µM
same,TGI,T-47D breast,5.75 µM
same,GI50,TK-10 renal,2.45 µM
same,TGI,TK-10 renal,5.08 µM
same,GI50,U251 CNS,1.53 µM
same,TGI,U251 CNS,2.94 µM
same,GI50,UACC-257 melanoma,1.84 µM
same,TGI,UACC-257 melanoma,3.52 µM
CCN1C/C(=C\c2cc(OC)c(OC)cc2OC)C(=O)/C(=C/c2cc(OC)c(OC)cc2OC)C1,GI50,786-0 renal,2.87 µM
same,TGI,786-0 renal,8.09 µM
same,GI50,A498 renal,2.56 µM
same,TGI,A498 renal,7.81 µM
same,GI50,A549 NSCLC,3.67 µM
same,TGI,A549 NSCLC,> 100 µM
same,GI50,ACHN renal,2.08 µM
same,TGI,ACHN renal,4.45 µM
same,GI50,BT-549 breast,2.87 µM
same,TGI,BT-549 breast,8.72 µM
same,GI50,CAKI-1 renal,2.98 µM
same,TGI,CAKI-1 renal,6.82 µM
same,GI50,CCRF-CEM leukemia,2.96 µM
same,TGI,CCRF-CEM leukemia,> 100 µM
same,GI50,COLO 205 colon,2.31 µM
same,TGI,COLO 205 colon,5.43 µM
same,GI50,DU-145 prostate,1.85 µM
same,TGI,DU-145 prostate,4.12 µM
same,GI50,EKVX NSCLC,3.5 µM
same,TGI,EKVX NSCLC,30.6 µM
same,GI50,HCC-2998 colon,1.74 µM
same,TGI,HCC-2998 colon,3.33 µM
same,GI50,HCT-116 colon,1.84 µM
same,TGI,HCT-116 colon,3.84 µM
same,GI50,HCT-15 colon,2.96 µM
same,TGI,HCT-15 colon,11.3 µM
same,GI50,HL-60(TB) leukemia,2.84 µM
same,TGI,HL-60(TB) leukemia,8.26 µM
same,GI50,HOP-62 NSCLC,3.45 µM
same,TGI,HOP-62 NSCLC,10.4 µM
same,GI50,HOP-92 NSCLC,2.46 µM
same,TGI,HOP-92 NSCLC,17.8 µM
same,GI50,HS 578T breast,3.34 µM
same,TGI,HS 578T breast,79.5 µM
same,GI50,HT29 colon,2.63 µM
same,TGI,HT29 colon,5.69 µM
same,GI50,IGROV1 ovarian,3.06 µM
same,TGI,IGROV1 ovarian,11.2 µM
same,GI50,K-562 leukemia,3.58 µM
same,TGI,K-562 leukemia,> 100 µM
same,GI50,KM12 colon,1.57 µM
same,TGI,KM12 colon,3.04 µM
same,GI50,LOX IMVI melanoma,2.25 µM
same,TGI,LOX IMVI melanoma,5.55 µM
same,GI50,M14 melanoma,2.3 µM
same,TGI,M14 melanoma,5.37 µM
same,GI50,MALME-3M melanoma,1.94 µM
same,TGI,MALME-3M melanoma,3.59 µM
same,GI50,MDA-MB-231 breast,3.66 µM
same,TGI,MDA-MB-231 breast,12 µM
same,GI50,MDA-MB-435,2.07 µM
same,TGI,MDA-MB-435,4.3 µM
same,GI50,MOLT-4 leukemia,4.1 µM
same,TGI,MOLT-4 leukemia,81.6 µM
same,GI50,NCI-H226 lung,2.59 µM
same,TGI,NCI-H226 lung,5.59 µM
same,GI50,NCI-H23 lung,3.43 µM
same,TGI,NCI-H23 lung,15.4 µM
same,GI50,NCI-H522 lung,3.05 µM
same,TGI,NCI-H522 lung,12 µM
same,GI50,NCI/ADR-RES ovarian,3.12 µM
same,TGI,NCI/ADR-RES ovarian,> 100 µM
same,GI50,OVCAR-3 ovarian,2.29 µM
same,TGI,OVCAR-3 ovarian,5.17 µM
same,GI50,OVCAR-4 ovarian,3.73 µM
same,TGI,OVCAR-4 ovarian,> 100 µM
same,GI50,OVCAR-5 ovarian,3.2 µM
same,TGI,OVCAR-5 ovarian,> 100 µM
same,GI50,OVCAR-8 ovarian,3.43 µM
same,TGI,OVCAR-8 ovarian,> 100 µM
same,GI50,PC-3 prostate,4.25 µM
same,TGI,PC-3 prostate,> 100 µM
same,GI50,RPMI-8226 leukemia,2.35 µM
same,TGI,RPMI-8226 leukemia,6.78 µM
same,GI50,RXF 393 renal,2.32 µM
same,TGI,RXF 393 renal,7.38 µM
same,GI50,SF-295 CNS,2.3 µM
same,TGI,SF-295 CNS,4.89 µM
same,GI50,SF-539 CNS,2.61 µM
same,TGI,SF-539 CNS,7.33 µM
same,GI50,SK-MEL-2 melanoma,2.29 µM
same,TGI,SK-MEL-2 melanoma,7.87 µM
same,GI50,SK-MEL-28 melanoma,2.48 µM
same,TGI,SK-MEL-28 melanoma,5.6 µM
same,GI50,SK-MEL-5 melanoma,1.59 µM
same,TGI,SK-MEL-5 melanoma,3.53 µM
same,GI50,SK-OV-3 ovarian,3.69 µM
same,TGI,SK-OV-3 ovarian,> 100 µM
same,GI50,SN12C renal,3.11 µM
same,TGI,SN12C renal,9.14 µM
same,GI50,SNB-19 CNS,4.23 µM
same,TGI,SNB-19 CNS,23.7 µM
same,GI50,SNB-75 CNS,5.86 µM
same,TGI,SNB-75 CNS,78 µM
same,GI50,SR leukemia,3.16 µM
same,TGI,SR leukemia,8.99 µM
same,GI50,SW-620 colon,3.2 µM
same,TGI,SW-620 colon,13.3 µM
same,GI50,T-47D breast,2.96 µM
same,TGI,T-47D breast,> 100 µM
same,GI50,TK-10 renal,3.88 µM
same,TGI,TK-10 renal,11.3 µM
same,GI50,U251 CNS,3.08 µM
same,TGI,U251 CNS,14.3 µM
same,GI50,UACC-257 melanoma,4.32 µM
same,TGI,UACC-257 melanoma,28 µM
same,GI50,UACC-62 melanoma,2.13 µM
same,TGI,UACC-62 melanoma,4.28 µM
same,GI50,UO-31 renal,1.8 µM
same,TGI,UO-31 renal,3.9 µM
